System: Nit11764
Details: 40 mM Na-K phosphate pH 7.0

| SMILES | Km |
| --- | --- |
| N#C/C=C/c1ccccc1 [Cinnamonitrile] | 1.27 ± 0.4 mM |
| N#C/C=C/C#N [Fumaronitrile] | 8.57 ± 0.8 mM |
